From US11505548B2, “Heterocyclic compounds and their use for treatment of helminthic infections and diseases” (Celgene Corporation, priority 2019, dated 2022)

Test system: microfilariae of Dirofilaria immitis
Test: Dirofilaria immitis, Microfilaria (DiMF) Assay
Type: cell-based
Settings: read-out: D. immitis activity level (IC50 or MED)
Summary of the method: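 D. immitis microfilariae were incubated in medium with DMSO-diluted compounds for about 72 h. Survival or paralysis was scored subjectively under the microscope. Values are Minimum Effective Dose (MED).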

| SMILES | IC50 [nM] |
| --- | --- |
| COc1ccc(-c2nnc(Nc3cc(OC(C)C)ccn3)[nH]2)nc1 [Compound 257, 4-isopropoxy-N-(5-(5-methoxy-pyridin-2-yl)-4H-1,2,4-triazol-3-yl)pyridin-2-amine] | 500 to 5000 |
| CC(C)Oc1cnc(-c2nsc(Nc3ncccc3C(=O)N(C)C)n2)cc1C(F)F [Compound 260, 2-(3-(4-(difluoro-methyl)-5-isopropoxy-pyridin-2-yl)-1,2,4-thiadiazol-5-ylamino)-N,N-dimethyl-nicotinamide] | 200 to 500 |
| CC(=O)N(C)c1cccnc1Nc1nc(-c2cc(C(F)F)c(OC(C)C)cn2)ns1 [Compound 261, N-(2-(3-(4-(difluoromethyl)-5-isopropoxy-pyridin-2-yl)-1,2,4-thiadiazol-5-ylamino)pyridin-3-yl)-N-methylacetamide] | 200 to 500 |
| CC(C)Oc1ccc(-c2nsc(Nc3ncccc3C(=O)N(C)C3CC3)n2)nc1 [Compound 262, N-cyclo-propyl-2-(3-(5-isopropoxy-pyridin-2-yl)-1,2,4-thiadiazol-5-ylamino)-N-methyl-nicotinamide] | 200 to 500 |
| CC(C)Oc1cnc(-c2nsc(Nc3ncccc3C(=O)N(C)C3CC3)n2)cc1C(F)(F)F [Compound 263, N-cyclo-propyl-2-(3-(5-isopropoxy-4-(trifluoro-methyl)pyridin-2-yl)-1,2,4-thiadiazol-5-ylamino)-N-methyl-nicotinamide] | < 200 |
| COc1cnc(Nc2nc(-c3cc(C(=O)N(C)C)c(OC(C)C)cn3)ns2)c(C(F)(F)F)c1 [Compound 264, 5-isopropoxy-2-(5-(5-methoxy-3-(trifluoro-methyl)pyridin-2-ylamino)-1,2,4-thiadiazol-3-yl)-N,N-dimethyliso-nicotinamide] | 200 to 500 |
| Cc1cccnc1Nc1nc(-c2ccc(OC3CCN(C(=O)C(C)C)CC3)cn2)ns1 [Compound 265, 2-methyl-1-(4-(6-(5-(3-methylpyridin-2-ylamino)-1,2,4-thiadiazol-3-yl)pyridin-3-yloxy)piperidin-1-yl)propan-1-one] | 500 to 5000 |
| CC(=O)N1CCC(Oc2ccc(-c3nsc(Nc4ncccc4C)n3)nc2)CC1 [Compound 266, 1-(4-(6-(5-(3-methyl-pyridin-2-ylamino)-1,2,4-thiadiazol-3-yl)pyridin-3-yloxy)piperidin-1-yl)ethanone] | 500 to 5000 |
| CC(=O)N1CCc2cc(-c3nsc(Nc4ncccc4C(F)(F)F)n3)ncc21 [Compound 267, 1-(5-(5-(3-(trifluoromethyl)pyridin-2-ylamino)-1,2,4-thiadiazol-3-yl)-2,3-dihydro-1H-pyrrolo[2,3-c]pyridin-1-yl)ethanone] | 200 to 500 |
| CC(=O)N(C)c1cc(C(F)(F)F)cnc1Nc1nc(-c2cc(C(F)(F)F)c(OC(C)C)cn2)ns1 [Compound 268, N-(2-(3-(5-isopropoxy-4-(trifluoromethyl)pyridin-2-yl)-1,2,4-thiadiazol-5-ylamino)-5-(trifluoromethyl)pyridin-3-yl)-N-methylacetamide] | < 200 |
| CC(=O)N(C)c1ccc(-c2nsc(Nc3ncccc3C)n2)nc1 [Compound 269, N-methyl-N-(6-(5-(3-methylpyridin-2-ylamino)-1,2,4-thiadiazol-3-yl)pyridin-3-yl)acetamide] | 500 to 5000 |
| CC(=O)N(C)c1cccnc1Nc1nc(-c2cc3c(cn2)OC(C)(C)C3)ns1 [Compound 271, N-(2-(3-(2,2-dimethyl-2,3-dihydrofuro [2,3-c]pyridin-5-yl)-1,2,4-thiadiazol-5-ylamino)pyridin-3-yl)-N-methylacetamide] | 500 to 5000 |
| CC(=O)N(C)c1cc(C(F)(F)F)cnc1Nc1nc(-c2cc3c(cn2)OC(C)(C)C3)ns1 [Compound 272, N-(2-(3-(2,2-dimethyl-2,3-dihydrofuro [2,3-c]pyridin-5-yl)-1,2,4-thiadiazol-5-ylamino)-5-(trifluoromethyl)pyridin-3-yl)-N-methylacetamide] | < 200 |
| CC(=O)N(C)c1cc(C(F)(F)F)cnc1Nc1nc(-c2cc3c(cn2)N(C(C)C)CC3)ns1 [Compound 273, N-(2-(3-(1-isopropyl-2,3-dihydro-1H-pyrrolo[2,3-c]pyridin-5-yl)-1,2,4-thiadiazol-5-ylamino)-5-(trifluoromethyl)pyridin-3-yl)-N-methylacetamide] | < 200 |
| Cc1cnc(Nc2nc(-c3cc(OC4COC4)ccn3)ns2)c(C(F)(F)F)c1 [Compound 275, N-(5-methyl-3-(trifluoromethyl)pyridin-2-yl)-3-(4-(oxetan-3-yloxy)pyridin-2-yl)-1,2,4-thiadiazol-5-amine] | < 200 |
| COC(=O)c1cccnc1Nc1nc(-c2ccc(OC(C)C)cn2)ns1 [Compound 276, methyl 2-(3-(5-isopropoxy-pyridin-2-yl)-1,2,4-thiadiazol-5-ylamino) nicotinate] | 500 to 5000 |
